Results taken from patent US20180291402A1, “Linalool Composition and Method of Producing Therefor” (AJINOMOTO CO., INC., priority 2015, published 2018).

How the values were obtained:
[1] = general statement on two-phase culture; cited from earlier work
[2] = test system: SWITCH-PphoC Δgcd/pSTV28 strain; experiment: Linalool addition test (growth, O.D. value over time); type: cell-based, P. ananatis; settings: reagent Linalool added at O.D. 0.6 to 0.7; tested at 1251, 837, 626 and 417 mg/L; M9 minimum medium, 34° C.; FIG. 58
Description: The glycerol stock of the SWITCH-PphoC Δgcd/pSTV28 strain obtained by transforming the SWITCH-PphoC Δgcd strain constructed in Example 2 with the commercially available plasmid vector pSTV28 (produced by Takara Bio Inc.) was thawed, and 50 μL of a microbial cell suspension was uniformly applied onto an LB plate containing 60 mg/L of chloramphenicol and cultured at 34° C. for 18 hours while left to stand (without agitation). […] Cultivation was carried out using a small-sized shaking culture apparatus TVS062CA (produced by Advantec Toyo Kaisha, Ltd.) for 23 hours, the shaking of 5.0 sec was stopped every 15 minutes, and the O.D. values were automatically measured.
The concentration of linalool in the culture medium was calculated from the specific gravity of the reagent Linalool (0.86 (20/4° C.)) (reference literature: actual values supplied from Wako Pure Chemical Industries, Ltd.).
The graph showing changes of the O.D. value over time measured using TVS062CA communication software (TV100070, produced by Advantec Toyo Kaisha, Ltd.) is illustrated in FIG. 58.

SMILES	solubility with respect to water [1]	concentration of linalool added to the culture medium at which the O.D. value is decreased (microbial cell growth inhibition) [2] [µg/mL]
C=C[C@](C)(O)CCC=C(C)C [R-linalool, (3R)-3,7-dimethylocta-1,6-diene-3-ol]	low solubility	
C=C[C@@](C)(O)CCC=C(C)C [S-linalool, (3 S)-3,7-dimethylocta-1,6-diene-3-ol]	low solubility	
C=CC(C)(O)CCC=C(C)C (stereo not drawn) [linalool, Linalool]		≥ 626
